In ChEMBL document CHEMBL1125025, “11 beta-methoxy-, 11 beta-ethyl- and 17 alpha-ethynyl-substituted 16 alpha-fluoroestradiols: receptor-based imaging agents with enhanced uptake efficiency and selectivity” (J Med Chem, 1990):

Key:
[1] = biological target: T1, Sex hormone-binding globulin (Homo sapiens) (UniProt P04278); test: Binding affinity against Sex steroid binding protein(SBP) of human serum; parameters: reference not given here
T1 sequence (whole entry): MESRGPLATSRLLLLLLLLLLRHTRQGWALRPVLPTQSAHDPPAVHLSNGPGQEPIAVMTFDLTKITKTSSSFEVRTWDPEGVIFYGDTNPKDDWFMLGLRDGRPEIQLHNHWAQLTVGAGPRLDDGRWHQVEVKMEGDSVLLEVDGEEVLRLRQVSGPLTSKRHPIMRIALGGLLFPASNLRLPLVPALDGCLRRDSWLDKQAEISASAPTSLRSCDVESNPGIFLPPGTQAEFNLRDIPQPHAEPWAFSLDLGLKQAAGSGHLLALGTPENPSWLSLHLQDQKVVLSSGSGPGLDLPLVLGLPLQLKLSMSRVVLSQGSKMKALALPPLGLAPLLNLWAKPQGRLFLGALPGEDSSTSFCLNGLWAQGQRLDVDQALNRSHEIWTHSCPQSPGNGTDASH

[2] = biological target: T2, Alpha-fetoprotein (Rattus norvegicus) (UniProt P02773); test: Binding affinity against Alphafetoprotein (AFP), in rodents.; parameters: reference not given here
T2 sequence (whole entry): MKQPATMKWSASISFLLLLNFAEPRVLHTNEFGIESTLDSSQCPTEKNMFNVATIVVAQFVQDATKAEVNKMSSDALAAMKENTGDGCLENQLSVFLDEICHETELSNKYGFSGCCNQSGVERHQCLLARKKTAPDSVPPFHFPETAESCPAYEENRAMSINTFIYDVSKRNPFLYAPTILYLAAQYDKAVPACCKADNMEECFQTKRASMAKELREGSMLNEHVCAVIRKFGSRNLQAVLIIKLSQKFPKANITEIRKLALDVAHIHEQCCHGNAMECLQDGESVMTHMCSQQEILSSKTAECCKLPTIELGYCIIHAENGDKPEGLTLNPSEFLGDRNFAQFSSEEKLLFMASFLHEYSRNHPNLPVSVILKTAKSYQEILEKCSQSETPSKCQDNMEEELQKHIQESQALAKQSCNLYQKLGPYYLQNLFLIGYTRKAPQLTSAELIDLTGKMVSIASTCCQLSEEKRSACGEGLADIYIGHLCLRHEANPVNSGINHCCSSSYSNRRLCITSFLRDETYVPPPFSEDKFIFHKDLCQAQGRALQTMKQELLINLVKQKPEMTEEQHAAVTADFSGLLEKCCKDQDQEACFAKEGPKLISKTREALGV

Row | Compound | relative binding affinity (RBA) [1] | relative binding affinity (RBA) [2]
1 | CC[C@H]1C[C@]2(C)[C@@H](O)CC[C@H]2[C@@H]2CCc3cc(O)ccc3[C@@H]12 | 40.8 | 1.21
2 | CO[C@H]1C[C@]2(C)[C@@H](O)[C@H](F)C[C@H]2[C@@H]2CCc3cc(O)ccc3[C@H]21 | 0.53 | 0.51
3 | CO[C@H]1C[C@]2(C)[C@@H](O)CC[C@H]2[C@@H]2CCc3cc(O)ccc3[C@H]21 | 1.72 | 0.26
4 | C[C@]12CC[C@@H]3c4ccc(O)cc4CC[C@H]3[C@@H]1C[C@@H](F)[C@@H]2O | 9.5 | 101
5 | CC[C@H]1C[C@]2(C)[C@@H](O)[C@H](F)C[C@H]2[C@@H]2CCc3cc(O)ccc3[C@@H]12 | 2.24 | 1.47

Results, then the compound that gave them:

Row | relative binding affinity (RBA) [1] | relative binding affinity (RBA) [2] | Compound
6 | 0.43 | 0.94 | C#C[C@]1(O)[C@H](F)C[C@H]2[C@@H]3CCc4cc(O)ccc4[C@H]3CC[C@@]21C
7 | 100 | 100 | C[C@]12CC[C@@H]3c4ccc(O)cc4CC[C@H]3[C@@H]1CC[C@@H]2O
8 | 1.81 | 3.51 | C#C[C@]1(O)CC[C@H]2[C@@H]3CCc4cc(O)ccc4[C@H]3CC[C@@]21C
